# From US6426360B1, “4,5-substituted imidazolyl compounds for the treatment of inflammation” (G D Searle & Co., priority 1994, dated 2002)
# What was measured:
# [1] = target: T1, Human COX II (Homo sapiens, UniProt P35354); test: COX II activity in vitro (PGE2 ELISA, recombinant enzyme); format: biochemical; settings: arachidonic acid 10 μM, pre-incubation 10-20 minutes; read-out: Human COX II ID50
# T1 construct: A 2.0 kb fragment containing the coding region of either human or murine COX-I or human or murine COX-II; made in house; host or cells: SF9 insect cells (recombinant baculovirus, transfer vector pVL1393)
# T1 sequence (P35354 18-604): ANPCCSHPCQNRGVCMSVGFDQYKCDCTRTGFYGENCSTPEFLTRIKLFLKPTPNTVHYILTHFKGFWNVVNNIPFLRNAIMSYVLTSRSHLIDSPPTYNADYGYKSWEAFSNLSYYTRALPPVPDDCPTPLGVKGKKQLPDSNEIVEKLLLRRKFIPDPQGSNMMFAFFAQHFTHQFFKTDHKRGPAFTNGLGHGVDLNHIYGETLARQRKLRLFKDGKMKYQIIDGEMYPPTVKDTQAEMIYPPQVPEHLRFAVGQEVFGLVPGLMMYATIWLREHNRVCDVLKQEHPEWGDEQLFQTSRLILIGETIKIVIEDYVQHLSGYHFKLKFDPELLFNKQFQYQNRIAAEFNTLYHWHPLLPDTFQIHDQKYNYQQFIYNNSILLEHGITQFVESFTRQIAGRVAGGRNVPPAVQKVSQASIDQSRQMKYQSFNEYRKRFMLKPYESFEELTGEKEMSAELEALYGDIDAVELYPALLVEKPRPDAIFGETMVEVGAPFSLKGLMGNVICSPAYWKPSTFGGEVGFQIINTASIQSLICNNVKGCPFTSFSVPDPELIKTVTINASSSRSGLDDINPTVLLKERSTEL
# Protocol: The COX II inhibition activity of the compounds of this invention illustrated in the Examples was determined by the following methods.
# (§1) A 2.0 kb fragment containing the coding region of either human or murine COX-I or human or murine COX-II was cloned into a BamH1 site of the baculovirus transfer vector pVL1393 (Invitrogen) to generate the baculovirus transfer vectors for COX-I and COX-II in a manner similar to the method of D. R. O'Reilly et al (Baculovirus Expression Vectors: A Laboratory Manual (1992)). Recombinant baculoviruses were isolated by transfecting 4 μg of baculovirus transfer vector DNA into SF9 insect cells ([…]) along with 200 ng of linearized baculovirus plasmid DNA by the calcium phosphate method. See M. D. Summers and G. E. Smith, A Manual of Methods for Baculovirus Vectors and Insect Cell Culture Procedures, Texas Agric. Exp. Station Bull. 1555 (1987). Recombinant viruses were purified by three rounds of plaque purification and high titer (10E7-10E8 pfu/ml), stocks of virus were prepared. For large scale production, SF9 insect cells were infected in 10 liter fermentors (0.5×10^6/ml) with the recombinant baculovirus stock such that the multiplicity of infection was 0.1. After 72 hours the cells were centrifuged and the cell pellet homogenized in Tris/Sucrose (50 mM: 25%, pH 8.0) containing 1% 3-[(3-cholamidopropyl)dimethylammonio]-1-propanesulfonate (CHAPS). The homogenate was centrifuged at 10,000×G for 30 minutes, and the resultant supernatant was stored at −80° C. before being assayed for COX activity.
# (§2) COX activity was assayed as PGE2 formed/μg protein/time using an ELISA to detect the prostaglandin released. CHAPS-solubilized insect cell membranes containing the appropriate COX enzyme were incubated in a potassium phosphate buffer (50 mM, pH 8.0) containing epinephrine, phenol, and heme with the addition of arachidonic acid (10 μM). Compounds were pre-incubated with the enzyme for 10-20 minutes prior to the addition of arachidonic acid. Any reaction between the arachidonic acid and the enzyme was stopped after ten minutes at 37° C./room temperature by transferring 40 μl of reaction mix into 160 μl ELISA buffer and 25 μM indomethacin. The PGE2 formed was measured by standard ELISA technology (Cayman Chemical).
# [2] = target: T2, Human COX I (Homo sapiens, UniProt P23219); test: COX I activity in vitro (PGE2 ELISA, recombinant enzyme); format: biochemical; settings: arachidonic acid 10 μM, pre-incubation 10-20 minutes; read-out: Human COX I ID50
# T2 construct: A 2.0 kb fragment containing the coding region of either human or murine COX-I or human or murine COX-II; made in house; host or cells: SF9 insect cells (recombinant baculovirus, transfer vector pVL1393)
# Protocol: as §1, §2
# T2 sequence (P23219 24-599): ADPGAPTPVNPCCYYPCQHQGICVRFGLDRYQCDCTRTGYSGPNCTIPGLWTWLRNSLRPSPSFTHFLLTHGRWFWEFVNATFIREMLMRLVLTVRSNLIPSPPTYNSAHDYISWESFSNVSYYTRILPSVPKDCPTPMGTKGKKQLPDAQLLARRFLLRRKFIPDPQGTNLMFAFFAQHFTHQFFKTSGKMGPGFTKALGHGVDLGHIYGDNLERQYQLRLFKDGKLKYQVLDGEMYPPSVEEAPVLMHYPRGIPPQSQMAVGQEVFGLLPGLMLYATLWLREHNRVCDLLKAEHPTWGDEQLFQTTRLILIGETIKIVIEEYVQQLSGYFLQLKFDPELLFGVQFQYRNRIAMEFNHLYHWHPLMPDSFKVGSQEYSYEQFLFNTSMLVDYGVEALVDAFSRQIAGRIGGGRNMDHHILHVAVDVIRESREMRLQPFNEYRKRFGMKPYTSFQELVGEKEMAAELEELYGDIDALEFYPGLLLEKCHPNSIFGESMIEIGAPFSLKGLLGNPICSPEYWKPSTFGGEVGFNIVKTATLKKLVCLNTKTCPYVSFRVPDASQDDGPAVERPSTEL
IC50 [1],melting point,IC50 [2],SMILES
0.2 µM,189 to 190 °C,> 100 µM,"CS(=O)(=O)c1ccc(-c2nc(COc3ccccc3)[nH]c2-c2ccc(F)cc2)cc1 [Example 2, 5-(4-Fluorophenyl)-4-(4-methylsulfonylphenyl)-2-phenoxymethyl-1H-imidazole]"
0.2 µM,221 to 224 °C,2.2 µM,"CS(=O)(=O)c1ccc(-c2nc(/C=C/c3ccccc3)[nH]c2-c2ccc(F)cc2)cc1 [Example 3, 5-(4-Fluorophenyl)-4-(4-methylsulfonylphenyl)-2-(2-phenyl-trans-eth-1-ene)-1H-imidazole]"
0.5 µM,235 to 237 °C,> 100 µM,"CS(=O)(=O)c1ccc(-c2nc(-c3cc4ccccc4o3)[nH]c2-c2ccc(F)cc2)cc1 [Example 4, 2-(2-Benzofuryl)-5-(4-fluorophenyl)-4-(4-methylsulfonylphenyl)-1H-imidazole]"
1.2 µM,214 to 215 °C,> 100 µM,"CC(C)c1nc(-c2ccc(S(C)(=O)=O)cc2)c(-c2ccc(F)cc2)[nH]1 [Example 5, 5-(4-Fluorophenyl)-2-isopropyl-4-(4-methylsulfonylphenyl)-1H-imidazole]"
4.8 µM,244 to 246 °C (dec.),> 100 µM,"CS(=O)(=O)c1ccc(-c2nc(-c3ccco3)[nH]c2-c2ccc(F)cc2)cc1 [Example 7, 5-(4-Fluorophenyl)-2-(2-furyl)-4-(4-methylsulfonylphenyl)-1H-imidazole]"
5.1 µM,115 to 117 °C,> 100 µM,"CS(=O)(=O)c1ccc(-c2nc(CO)[nH]c2-c2ccc(F)cc2)cc1 [Example 9, 5-(4-Fluorophenyl)-2-hydroxymethyl-4-[4-(methylsulfonyl)phenyl]imidazole]"
1.2 µM,228 to 234 °C,63.5 µM,"COc1ccc(-c2[nH]c(C(F)(F)F)nc2-c2ccc(S(C)(=O)=O)cc2)cc1F [Example 10, 5-(3-Fluoro-4-methoxyphenyl)-4-[4-(methylsulfonyl)phenyl]-2-(trifluoromethyl)-1H-imidazole]"
0.6 µM,228 to 230 °C,2 µM,CS(=O)(=O)c1ccc(-c2nc(C(F)(F)F)[nH]c2-c2ccc3ccccc3c2)cc1 [Example 14]
0.6 µM,234 to 238 °C,20 µM,"Cc1ccc(-c2[nH]c(C(F)(F)F)nc2-c2ccc(S(C)(=O)=O)cc2)cc1 [Example 16, 5-(4-Methylphenyl)-4-[4-(methylsulfonyl)phenyl]-2-(trifluoromethyl)-1H-imidazole]"
0.3 µM,–,> 100 µM,"CS(=O)(=O)c1ccc(-c2nc(C(F)(F)F)[nH]c2-c2ccc(F)cc2F)cc1 [Example 17, 5-(2,4-Difluorophenyl)-4-[4-(methylsulfonyl)phenyl]-2-(trifluoromethyl)-1H-imidazole]"
0.2 µM,–,> 100 µM,"CS(=O)(=O)c1ccc(-c2nc(C(F)(F)F)[nH]c2-c2ccc(F)c(F)c2)cc1 [Example 18, 5-(3,4-Difluorophenyl)-4-[4-(methylsulfonyl)phenyl]-2-(trifluoromethyl)-1H-imidazole]"
0.5 µM,228 to 230 °C,> 100 µM,"CS(=O)(=O)c1ccc(-c2nc(C(F)(F)F)[nH]c2-c2ccccc2)cc1 [Example 19, 4-[4-(Methylsulfonyl)phenyl]-5-phenyl-2-(trifluoromethyl)-1H-imidazole]"
40.7 µM,233 to 235 °C (dec.),> 100 µM,"CS(=O)(=O)c1ccc(-c2nc(-c3ccoc3)[nH]c2-c2ccc(F)cc2)cc1 [Example 20, 5-(4-Fluorophenyl)-2-(3-furyl)-4-(4-methylsulfonylphenyl)-1H-imidazole]"
12.8 µM,–,> 100 µM,"Cn1c(C(F)(F)F)nc(-c2ccc(S(C)(=O)=O)cc2)c1-c1ccc(F)cc1 [Example 44, 5-(4-Fluorophenyl)-1-methyl-4-[4-(methylsulfonyl)phenyl]-2-(trifluoromethyl)-1H-imidazole]"
0.1 µM,261 to 262 °C,12.9 µM,"CS(=O)(=O)c1ccc(-c2nc(C(F)(F)F)[nH]c2-c2ccc(Br)s2)cc1 [Example 47, 5-(5-Bromothien-2-yl)-4-[4-(methylsulfonyl)phenyl]-2-(trifluoromethyl)-1H-imidazole]"
8.7 µM,248 to 251 °C,> 100 µM,"CN(C)c1ccc(-c2[nH]c(C(F)(F)F)nc2-c2ccc(S(C)(=O)=O)cc2)cc1 [Example 48, N,N-Dimethyl-4-[4-[4-(methylsulfonyl)phenyl]-2-(trifluoromethyl)-1H-imidazol-5-yl]benzenamine]"
55 µM,158 to 161 °C,10.8 µM,"CS(=O)(=O)c1ccc(-c2[nH]c(S)nc2-c2ccc(F)cc2)cc1 [Example 49, 4-(4-Fluorophenyl)-5-[4-(methylsulfonyl)phenyl]-1H-imidazole-2-thiol]"
1.5 µM,179 to 182 °C,> 100 µM,"CS(=O)(=O)c1ccc(-c2[nH]c(SCc3ccc4ccccc4n3)nc2-c2ccc(F)cc2)cc1 [Example 50, 2-[[[4-(4-Fluorophenyl)-5-[4-(methylsulfonyl)phenyl]-1H-imidazol-2-yl]thio]methyl]quinoline]"
0.1 µM,–,6.2 µM,"Cc1cccc(-c2[nH]c(C(F)(F)F)nc2-c2ccc(S(N)(=O)=O)cc2)c1 [Example 60, 5-(3-Methylphenyl)-4-[4-(sulfonamido)phenyl]-2-trifluoromethyl-1H-imidazole]"
2.4 µM,–,> 100 µM,"CS(=O)(=O)c1ccc(-c2nc(C(F)(F)F)[nH]c2-c2cccnc2)cc1 [Example 62, 4-(4-(Methylsulfonyl)phenyl]-5-(3-pyridyl)-2-(trifluoromethyl)-1H-imidazole]"
1.3 µM,–,> 100 µM,CS(=O)(=O)c1ccc(-c2nc(C(F)(F)F)[nH]c2-c2cccc(C#N)c2)cc1 [Example 63]
2.9 µM,–,> 100 µM,"C=CCOCc1nc(-c2ccc(F)cc2)c(-c2ccc(S(C)(=O)=O)cc2)[nH]1 [Example 80, 4-(4-Fluorophenyl)-5-[4-(methylsulfonyl)phenyl]-2-[(2-propenyloxy)methyl]-1H-imidazole]"
3.3 µM,–,77 µM,"CCOCc1nc(-c2ccc(F)cc2)c(-c2ccc(S(C)(=O)=O)cc2)[nH]1 [Example 81, 2-(Ethoxymethyl)-4-(4-fluorophenyl)-5-[4-(methylsulfonyl)phenyl]-1H-imidazole]"
0.7 µM,–,> 100 µM,"CS(=O)(=O)c1ccc(-c2[nH]c(COCc3ccccc3)nc2-c2ccc(F)cc2)cc1 [Example 82, 4-(4-Fluorophenyl)-5-[4-(methylsulfonyl)phenyl]-2-(phenyl-methoxymethyl)-1H-imidazole]"
5.9 µM,–,> 100 µM,"CC(O)(c1nc(-c2ccc(F)cc2)c(-c2ccc(S(C)(=O)=O)cc2)[nH]1)C(F)(F)F (stereo not drawn) [Example 91, 4-(4-Fluorophenyl)-α-methyl-5-[4-(methylsulfonyl)phenyl]-α-(trifluoromethyl)-1H-imidazole-2-methanol]"
3 µM,–,> 100 µM,"CS(=O)(=O)c1ccc(-c2[nH]c(S(=O)(=O)c3ccccc3)nc2-c2ccc(F)cc2)cc1 [Example 92, 4-(4-Fluorophenyl)-5-[4-(methylsulfonyl)phenyl]-2-(phenyl-sulfonyl)-1H-imidazole]"
